These results are taken from patent US7534891B2, “Quinoline derivatives as H3R inverse agonists” (Hoffman-La Roche Inc., priority 2004, dated 2009).

The target in this assay is T1, histamine 3 receptor (H3R), human HR3-CHO membranes (Homo sapiens, UniProt Q9Y5N1).
T1 construct: expressed in transfected cells; host or cells: CHO cells (HR3-CHO cell line), membrane preparation
T1 sequence (Q9Y5N1 whole entry): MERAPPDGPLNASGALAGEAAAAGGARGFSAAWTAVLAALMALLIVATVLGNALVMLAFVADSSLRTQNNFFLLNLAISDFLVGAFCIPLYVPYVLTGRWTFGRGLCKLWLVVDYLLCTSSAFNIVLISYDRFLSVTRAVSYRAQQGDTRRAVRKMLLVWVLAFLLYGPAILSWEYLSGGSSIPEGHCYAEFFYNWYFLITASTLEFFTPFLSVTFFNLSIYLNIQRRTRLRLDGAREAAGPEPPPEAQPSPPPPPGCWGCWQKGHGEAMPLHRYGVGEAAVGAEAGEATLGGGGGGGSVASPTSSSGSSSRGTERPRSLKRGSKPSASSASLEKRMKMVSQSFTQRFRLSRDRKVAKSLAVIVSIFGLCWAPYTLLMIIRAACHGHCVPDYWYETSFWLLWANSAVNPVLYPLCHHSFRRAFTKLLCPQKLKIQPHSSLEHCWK
The assay is described as follows: Competition binding assay with 3H-(R)α-methylhistamine on membranes of the human HR3-CHO cell line. The following applies: displacement of 3H-(R)α-methylhistamine (1 nM), membrane of human HR3-CHO cell line; Ki calculated from IC50 by Cheng-Prusoff. On the procedure: Binding Assay with ^3H-(R)α-methylhistamine
Saturation binding experiments were performed using HR3-CHO membranes prepared as described in Takahashi, K, Tokita, S., Kotani, H. (2003) J. Pharmacol. Exp. Therapeutics 307, 213-218.
An appropriate amount of membrane (60 to 80 μg protein/well) was incubated with increasing concentrations of ^3H(R)α-Methylhistamine di-hydrochloride (0.10 to 10 nM). Non specific binding was determined using a 200 fold excess of cold (R)(X-Methylhistamine dihydrobromide (500 nM final concentration). The incubation was carried out at room temperature (in deep-well plates shaking for three hours). The final volume in each well was 250 pt. The incubation was followed by rapid filtration on GF/B filters (pre-soaked with 100 W of 0.5% PEI in Tris 50 mM shaking at 200 rpm for two hours). The filtration was made using a cell-harvester and the filter plates were then washed five times with ice cold washing buffer containing 0.5 M NaCl. After harvesting, the plates were dried at 55° C. for 60 min, then we added scintillation fluid (Microscint 40, 40 microl in each well) and the amount of radioactivity on the filter was determined in Packard top-counter after shaking the plates for two hours at 200 rpm at room temperature.
Binding Buffer: 50 mM Tris-HCl pH 7.4 and 5 mM MgCl2×6H2O pH 7.4. Washing Buffer: 50 mM Tris-HCl pH 7.4 and 5 mM MgCl2x6H2O and 0.5 M NaCl pH 7.4.
Indirect measurement of affinity of H3R inverse agonists: twelve increasing concentrations (ranging from 10 μM to 0.3 nM) of the selected compounds were always tested in competition binding experiments using membrane of the human HR3-CHO cell line. An appropriate amount of protein, e.g. approximately 500 cpm binding of RAMH at Kd, were incubated for 1 hour at room temperature in 250 μl final volume in 96-well plates in presence of ^3H(R)α-Methylhistamine (1 nM final concentration=Kd). […]
All compounds were tested at a single concentration in duplicates. […] Ki's were calculated from IC50 based on Cheng-Prusoff equation (Cheng, Y, Prusoff, W H (1973) Biochem Pharmacol 22, 3099-3108).
On to `O=C(c1ccc2cc(OCCCN3CCCCC3)ccc2n1)N1CCCC1` [Example 64, [6-(3-piperidin-1-yl-propoxy)-quinolin-2-yl]-pyrrolidin-1-yl-methanone], for which the inhibition constant Ki was 450 nM.

For the compound `CC(C)N1CCC(Oc2ccc3nc(C(=O)N4CCC4)ccc3c2)CC1` [Example 14, azetidine-1-yl-[6-(1-isopropyl-piperidin-4-yloxy)-quinolin-2-yl]-methanone], the Ki was 78 nM.

Consider `CC(C)N1CCC(Oc2ccc3nc(C(=O)N4CC=CC4)ccc3c2)CC1` [Example 2, (2,5-dihydro-pyrrol-1-yl)-[6-(1-isopropyl-piperidin-4-yloxy)-quinolin-2-yl]-methanone], for which the Ki was 200 nM.

Usually Ki stands for a measure of affinity in units of concentration, obtained from inhibition or displacement.
